According to patent US10702489B2, “Treatment of nervous system disorders using combinations of RXR agonists and thyroid hormones” (IO Therapeutics, Inc., priority 2015, dated 2020):

Tested on: mouse oligodendrocyte progenitor cells (OPCs)
Test: mouse OPC differentiation with IRX4204 and T3
Type: cell-based
Settings: 5-day treatment; IRX4204 10, 1, 0.1 nM
Description: OPCs were derived from plp-EGFP expressing mice.
Therapeutic agents were tested in 96-well plates (6 wells per concentration). […] All media contained 0.1% DMSO. At the end of the 5-day treatment, cells were imaged on Cellomics in two channels and algorithms were used to count nuclei and EGFP+oligodendrocytes.

SMILES: N[C@@H](Cc1cc(I)c(Oc2ccc(O)c(I)c2)c(I)c1)C(=O)O [T3, triiodothyronine, reference compound]
- oligodendrocyte production (EGFP+ oligodendrocytes): clear dose-responses
